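Five compound concentrations were applied to cells in 96-well plates for 48 hours; endpoints were derived by simple linear interpolation of the resulting dose-response curve. GI50: concentration for 50% inhibition of growth.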 The source made the active and inactive calls. Rule as the data show it: active = GI50 up to about 1.1 µM and inactive = higher.
Legend:
Experiment in all cases: NCI-60 cell line screen, 48 h
Malme-3M = tested on: Malme-3M
SK-OV-3 = tested on: SK-OV-3
TK-10 = tested on: TK-10
HCC 2998 = tested on: HCC 2998
EKVX = tested on: EKVX
NCI-H23 = tested on: NCI-H23
OVCAR-5 = tested on: OVCAR-5
UACC-62 = tested on: UACC-62
IGROV-1 = tested on: IGROV-1
KM12 = tested on: KM12
COLO 205 = tested on: COLO 205
CAKI-1 = tested on: CAKI-1
OVCAR-8 = tested on: OVCAR-8
M14 = tested on: M14
OVCAR-3 = tested on: OVCAR-3
HCT-15 = tested on: HCT-15
SW-620 = tested on: SW-620
SN12C = tested on: SN12C
A549 = tested on: A549

| Compound | GI50 (Malme-3M) | GI50 (SK-OV-3) | GI50 (TK-10) | GI50 (HCC 2998) | GI50 (EKVX) | GI50 (NCI-H23) | GI50 (OVCAR-5) | GI50 (UACC-62) | GI50 (IGROV-1) | GI50 (KM12) | GI50 (COLO 205) | GI50 (CAKI-1) | GI50 (OVCAR-8) | GI50 (M14) | GI50 (OVCAR-3) | GI50 (HCT-15) [µM] | GI50 (SW-620) | GI50 (SN12C) | GI50 (A549) |
| --- | --- | --- | --- | --- | --- | --- | --- | --- | --- | --- | --- | --- | --- | --- | --- | --- | --- | --- | --- |
| O=C(O)CCCCCCC[C@H]1S[C@H]1CCCCCCO | > 100 µM (inactive) | > 100 µM (inactive) | > 100 µM (inactive) | > 100 µM (inactive) | > 100 µM (inactive) | > 100 µM (inactive) | > 100 µM (inactive) | > 100 µM (inactive) | > 100 µM (inactive) | > 100 µM (inactive) | > 100 µM (inactive) | > 100 µM (inactive) | > 100 µM (inactive) | > 100 µM (inactive) | > 100 µM (inactive) | > 100 | – | – | – |
| CC(=O)c1cc2sc3ccccc3c2[nH]1 | > 100 µM (inactive) | > 100 µM (inactive) | > 100 µM (inactive) | > 100 µM (inactive) | – | > 100 µM (inactive) | > 100 µM (inactive) | 26.7 µM (inactive) | – | > 100 µM (inactive) | > 100 µM (inactive) | > 100 µM (inactive) | 61.2 µM (inactive) | > 100 µM (inactive) | > 100 µM (inactive) | > 100 | > 100 µM (inactive) | > 100 µM (inactive) | > 100 µM (inactive) |
| Cn1c2ccccc2c2ccc3c(c21)C(=O)C(c1ccccc1)=CC3=O | 21.9 µM (inactive) | 81.3 µM (inactive) | 43.8 µM (inactive) | 24.5 µM (inactive) | 23.2 µM (inactive) | 22.4 µM (inactive) | > 100 µM (inactive) | – | 13.4 µM (inactive) | 32.2 µM (inactive) | 31.1 µM (inactive) | 49.9 µM (inactive) | 14.9 µM (inactive) | 39.4 µM (inactive) | 23.7 µM (inactive) | 7.03 | – | 17.3 µM (inactive) | 34.4 µM (inactive) |
| O=C(Nc1ccn(C2CC(O)C(COC(c3ccccc3)(c3ccccc3)c3ccccc3)O2)c(=O)n1)c1ccccc1 (stereo not drawn) | 2.61 µM (inactive) | 11.5 µM (inactive) | – | 7.36 µM (inactive) | 4.27 µM (inactive) | 1.33 µM (inactive) | 1.87 µM (inactive) | 5.98 µM (inactive) | 2.9 µM (inactive) | 4.35 µM (inactive) | 2.09 µM (inactive) | 6.32 µM (inactive) | 1.97 µM (inactive) | 2.3 µM (inactive) | 2.03 µM (inactive) | 2.59 | 2.58 µM (inactive) | 1.89 µM (inactive) | 4.54 µM (inactive) |
| O=C1OC(=O)c2c1cc1cc3c(cc1c2-c1ccc2c(c1)OCO2)OCO3 | > 100 µM (inactive) | – | > 100 µM (inactive) | > 100 µM (inactive) | – | > 100 µM (inactive) | > 100 µM (inactive) | > 100 µM (inactive) | > 100 µM (inactive) | > 100 µM (inactive) | > 100 µM (inactive) | > 100 µM (inactive) | > 100 µM (inactive) | > 100 µM (inactive) | > 100 µM (inactive) | > 100 | > 100 µM (inactive) | > 100 µM (inactive) | > 100 µM (inactive) |
| COc1cc(C2C(C(=O)Nc3ccccc3C)=C(C)NC(C)=C2C(=O)Nc2ccccc2C)ccc1O | > 100 µM (inactive) | > 100 µM (inactive) | > 100 µM (inactive) | > 100 µM (inactive) | > 100 µM (inactive) | > 100 µM (inactive) | > 100 µM (inactive) | > 100 µM (inactive) | > 100 µM (inactive) | > 100 µM (inactive) | > 100 µM (inactive) | > 100 µM (inactive) | > 100 µM (inactive) | > 100 µM (inactive) | > 100 µM (inactive) | – | > 100 µM (inactive) | > 100 µM (inactive) | > 100 µM (inactive) |

Reference: ChEMBL document CHEMBL1201862, “PubChem BioAssay data set” (2004)
